In PMC13184981, “Discovery and Development of a Potent LIMK2 Isoform-Specific Degrader” (ACS Chemical Biology, 2026):

How the values were obtained:
LIMK1 = target: T1, LIMK1 (Homo sapiens, UniProt P53667); assay: Western blot of endogenous LIMK1 in HuCCT1 cells; type: cell-based; settings: HuCCT1, 6 h treatment
T1 construct: host or cells: HEK293T
Procedure: HuCCT1 cell line was cultured in Roswell Park Memorial Institute (RPMI) 1640 medium supplemented with GlutaMAX, 10% fetal bovine serum (FBS), and 1% penicillin/streptomycin. The cell line was maintained in an incubator with 5% CO2 at 37 °C. For the treatment, 3 × 10^5 cells were plated and treated with the compounds and DMSO as the control for 6 h. The cells were then lysed using RIPA buffer (50 mM Tris-HCl pH 7.4, 150 mM NaCl, 1% Triton X-100, 1% NaDOC, 0.1% SDS, 1 mM EDTA), freshly supplemented with protease and phosphatase inhibitor cocktails (Sigma-Aldrich, Darmstadt, Germany). After 1 h incubation on ice, the lysates were centrifuged for 30 min at […], and the protein-containing supernatant was collected. The protein concentrations were determined using Protein Assay Dye Reagent Concentrate (Bradford, Bio-Rad, Hercules, CA, USA) and Pre-Diluted Protein Assay Standards: Bovine Serum Albumin (BSA) Set (Thermo Fisher Scientific, Darmstadt, Germany). Then, equal amounts of protein was mixed with Roti-Load 1 dye (Carl Roth, Karlsruhe, Germany) and 4x Laemmli Buffer (Bio-Rad, Hercules, CA, USA), denatured at 95 °C, and run on NuPAGE 4–12% bis-Tris gels (Thermo Fisher Scientific). Proteins were blotted on methanol-activated PVDF Transfer Membranes (Thermo Fisher Scientific) using the wet transfer method with the transfer buffer (Thermo Fisher Scientific) and 20% methanol. […]

[1] = system: CFL1, CFL2 and DSTN phosphorylation; assay: Phospho-proteomics; type: cell-based, human; settings: HuCCT1, 500 nM, 6 h
Procedure: Cells were lysed in SDS-lysis buffer (50 mM Tris, pH 8.5, 2% SDS, 10 mM TCEP, 40 mM chloroacetamide, protease inhibitor cocktail, phosphatase inhibitor) and boiled at 95 °C for 10 min. Proteins were precipitated using methanol-chloroform and resuspended in 8 M urea, 50 mM Tris, pH 8.5. Proteins were digested with 1:50 w/w LysC (Wako Chemicals, cleaves at the carboxylic side of lysine residue) and 1:100 w/w trypsin (Promega, Sequencing-grade) overnight at 37 °C after dilution to a final urea concentration of 1 M using 50 mM Tris pH 8.5. Digested peptides were then acidified (pH 2–3) using trifluoroacetic acid (TFA) and purified using C18 SepPak columns (Waters). […]
Tryptic peptides were analyzed on an Orbitrap Lumos coupled to an easy nLC 1200 (ThermoFisher Scientific) using a 35 cm long, 75 μm ID fused-silica column packed in-house with 1.9 μm C18 particles (Reprosil pur, Dr. Maisch), and kept at 50 °C using an integrated column oven (Sonation). […] MS2 scans for quantification were performed on the 10 most intense MS ions with an isolation window of 0.7 Th. Ions were fragmented using HCD with a normalized collision energy of 35% and analyzed in the Orbitrap with a resolution of 50,000 at m/z 200, scan range of 100–500 m/z, AGC target value of 1 × 10^5, and a maximum injection time of 86 ms. […]
MS raw data were analyzed using MaxQuant (2.4.2.0). […]

LIMK2 = LIMK2 (Homo sapiens, UniProt P53671); assay: NanoBRET cellular target engagement, LIMK2; type: cell-based; design: host or cells: HEK293T
Sequence of LIMK2 (P53671 whole entry): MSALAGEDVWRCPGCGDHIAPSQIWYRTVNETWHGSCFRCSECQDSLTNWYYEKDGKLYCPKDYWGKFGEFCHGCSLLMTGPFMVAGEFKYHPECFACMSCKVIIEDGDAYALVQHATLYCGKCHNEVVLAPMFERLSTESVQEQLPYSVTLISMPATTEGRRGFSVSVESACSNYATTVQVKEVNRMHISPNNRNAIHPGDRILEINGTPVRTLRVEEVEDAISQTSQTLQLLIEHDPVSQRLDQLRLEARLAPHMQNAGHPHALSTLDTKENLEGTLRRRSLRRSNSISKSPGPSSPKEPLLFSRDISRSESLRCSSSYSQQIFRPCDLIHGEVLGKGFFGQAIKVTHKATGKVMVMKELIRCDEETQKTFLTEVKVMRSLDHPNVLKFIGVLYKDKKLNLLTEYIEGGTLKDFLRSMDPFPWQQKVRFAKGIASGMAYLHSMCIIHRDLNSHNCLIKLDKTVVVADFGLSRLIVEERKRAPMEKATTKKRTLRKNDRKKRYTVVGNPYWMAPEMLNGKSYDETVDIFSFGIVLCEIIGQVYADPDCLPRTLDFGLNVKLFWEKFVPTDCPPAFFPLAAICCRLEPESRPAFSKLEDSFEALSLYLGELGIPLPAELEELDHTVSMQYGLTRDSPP
Procedure: Gene encoding LIMK1 (Promega, NV3391) and LIMK2 (Promega, NV1531), CRBN (Promega, N2741) proteins cloned in frame with NanoLuc fusion tag at the C-terminus, were transfected into HEK293T cells using FuGENE HD (Promega, E2312) following manufacture’s protocol and proteins were allowed to express for 20 h at 37 °C and 5% CO2. […] The 10 μL of transfected cells after trypsinization and resuspending in Opti-MEM (Life Technologies, 31985070) were dispensed into each well of the 384-well plate (Greiner 781207) at a cell density of 2 × 10^5 cells/mL. For dose–response BRET measurements, compounds at various concentrations, immediately followed by Tracer K10 (Promega, Tracer DB ID: T000008) for LIMK1 and LIMK2, CRBN Tracer (Promega, Tracer DB ID: T000018) for CRBN at an optimum KD concentration chosen from TracerDB (tracerdb.org), were pipetted using an Echo acoustic dispenser (Labcyte). The system was allowed to equilibrate for 2 h at 37 °C and 5% CO2 before BRET measurements. To measure BRET signal, the NanoBRET NanoGlo Substrate (Promega, N1573) was added as per the manufacturer’s protocol, and filtered luminescence was measured on a PHERAstar plate reader (BMG Labtech) equipped with a luminescence filter pair (450 nm BP filter (donor) and 610 nm LP filter (acceptor)). For lysed NanoBRET measurement, 25 nL of Digitonin (0.05 μg/μL) was pipetted to each well using Labcyte, and the plate was incubated for 5 min at 37 °C and 5% CO2. After incubation, the BRET signals were measured by a PHERAstar plate reader following the same procedure as intact NanoBRET measurement. […] The BRET ratios are normalized to both of them in the prism output data file. Competitive displacement data were then normalized to controls and were graphed using GraphPad Prism 9 software employing a normalized 3-parameter curve fit with the following equation: Y = 100/(1 + 10̂(X – logIC50)).

T1 sequence (P53667 whole entry): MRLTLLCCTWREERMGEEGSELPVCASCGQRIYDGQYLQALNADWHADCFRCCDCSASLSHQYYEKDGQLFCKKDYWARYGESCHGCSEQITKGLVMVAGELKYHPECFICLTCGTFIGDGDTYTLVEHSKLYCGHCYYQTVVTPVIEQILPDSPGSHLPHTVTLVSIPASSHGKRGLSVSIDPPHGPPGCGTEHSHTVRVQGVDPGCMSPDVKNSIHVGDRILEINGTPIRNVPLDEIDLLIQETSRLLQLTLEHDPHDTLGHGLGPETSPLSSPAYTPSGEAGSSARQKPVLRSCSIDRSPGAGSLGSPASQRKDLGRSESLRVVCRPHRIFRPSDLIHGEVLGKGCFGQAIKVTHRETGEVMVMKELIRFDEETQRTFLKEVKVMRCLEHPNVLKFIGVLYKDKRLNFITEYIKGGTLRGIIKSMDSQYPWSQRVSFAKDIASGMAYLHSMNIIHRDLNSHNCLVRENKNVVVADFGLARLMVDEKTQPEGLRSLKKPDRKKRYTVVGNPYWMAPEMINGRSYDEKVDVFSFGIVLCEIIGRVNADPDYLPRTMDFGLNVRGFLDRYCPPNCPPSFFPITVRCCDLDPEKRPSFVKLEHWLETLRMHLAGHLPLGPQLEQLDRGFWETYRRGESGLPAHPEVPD

Cc1c(OCc2cn(CCCCC(=O)Nc3ncc(-c4cc(C(F)F)nn4-c4c(Cl)cccc4Cl)s3)nn2)cccc1N1CCC(=O)NC1=O [22b]
LIMK1 degradation (Western blot) (LIMK1): LIMK1 protein levels remained unaffected | phosphorylation of CFL1, CFL2 and DSTN [1]: no significant change in phosphorylation | IC50 (LIMK2): 80 nM | LIMK2 binary IC50 stronger than LIMK1 (LIMK2; NanoBRET, LIMK2 vs LIMK1): 5 fold
